Tests used:
[1] = molecular target: T1, human 5-hydroxytryptamine-2C (h5-HT2C) receptor (Homo sapiens, UniProt P28335); assay: [125I]DOI binding to membranes of CHO cells expressing the human 5-HT2C receptor; conditions: [125I]DOI radioligand, CHO cell membranes, room temperature 60 min; read-out: 5-HT2C Affinity Ki
T1 construct: expressed in transfected cells; host or cells: CHO (Chinese Hamster Ovary) cells; membranes
T1 sequence (P28335 33-458): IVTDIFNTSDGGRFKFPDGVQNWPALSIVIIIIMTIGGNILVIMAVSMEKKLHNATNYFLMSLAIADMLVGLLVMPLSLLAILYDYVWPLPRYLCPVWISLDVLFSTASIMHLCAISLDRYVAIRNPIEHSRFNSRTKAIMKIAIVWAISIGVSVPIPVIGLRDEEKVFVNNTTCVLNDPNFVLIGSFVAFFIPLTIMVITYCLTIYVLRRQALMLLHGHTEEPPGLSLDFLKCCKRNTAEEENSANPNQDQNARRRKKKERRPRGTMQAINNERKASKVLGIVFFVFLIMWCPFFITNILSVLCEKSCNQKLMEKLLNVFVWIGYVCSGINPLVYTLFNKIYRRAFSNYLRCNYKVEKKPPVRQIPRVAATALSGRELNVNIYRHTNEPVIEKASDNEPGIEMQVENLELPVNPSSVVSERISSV

[2] = molecular target: T2, human 5-HT2C receptor (Homo sapiens, UniProt P28335); assay: 5-HT2C receptor-stimulated calcium mobilization (FLIPR) in CHO cells; assay type: cell-based; conditions: for EC50: calcium mobilization, CHO cells stably expressing human 5-HT2C, read-out: 5-HT2C Function EC50; for 5-HT2C Function Emax (%) / Emax: percentage of the response observed with a maximally effective concentration of 5-HT; for Emax: CHO, read-out: 5-HT2C Function Emax (%);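 as to all read-outs here: Fluo-3-AM fluorescence read on FLIPR every 1 s, agonist added after 10 baseline reads, response taken as peak minus lowest raw fluorescence count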
T2 sequence (P28335 33-458): T1 sequence (P28335 33-458)

Row | Structure (SMILES) | Ki [1] | EC50 [2] | 5-HT2C Function Emax (%) [2] | Emax [2]
1 | Cc1ccccc1-c1cc(Cl)cc2c1OC(CN)C2 (single isomer, unassigned; (+)) [Example 96, (+)-1-[5-chloro-7-(2-methylphenyl)-2,3-dihydro-1-benzofuran-2-yl]methanamine] | 1 nM | 27 nM | 100% | –
2 | Cc1cccc(-c2cccc3c2OC(CN)C3)c1 (single isomer, unassigned; (+)) [Example 42, (+)-1-[7-(3-methylphenyl)-2,3-dihydro-1-benzofuran-2-yl]methanamine] | 17 nM | 162 nM | – | 100%
3 | Cc1ccccc1-c1cc(C#N)cc2c1OC(CN)C2 (racemic) [Example 311, (±)-2-(aminomethyl)-7-(2-methylphenyl)-2,3-dihydro-1-benzofuran-5-carbonitrile] | 25 nM | 63 nM | – | 90%
4 | CNCC1Cc2cc(C)cc(-c3cccc(OC)c3OC)c2O1 (racemic) [Example 484, (±)-{[7-(2,3-dimethoxyphenyl)-5-methyl-2,3-dihydro-1-benzofuran-2-yl]methyl}methylamine] | 0.51 nM | 43 nM | – | 70%
5 | CNCC1Cc2cc(C)cc(-c3cc(Cl)ccc3Cl)c2O1 (racemic) [Example 486, (±)-{[7-(2,5-dichlorophenyl)-5-methyl-2,3-dihydro-1-benzofuran-2-yl]methyl}methylamine] | 0.2 nM | 5 nM | – | 90%
6 | NCC1Cc2cccc(-c3ccccc3Cl)c2O1 (single isomer, unassigned; (+)) [Example 130, (+)-1-[7-(2-chlorophenyl)-2,3-dihydro-1-benzofuran-2-yl]methanamine] | 4.8 nM | 54 nM | 80% | –
7 | COc1ccc(-c2cc(C)cc3c2OC(CN)C3)cc1 (racemic) [Example 293, (±)-{[7-(4-methoxyphenyl)-5-methyl-2,3-dihydro-1-benzofuran-2-yl]methyl}amine] | 3.8 nM | 7 nM | – | 90%
8 | NCC1Cc2cccc(-c3ccc(C(F)(F)F)cc3)c2O1 (single isomer, unassigned; (-)) [Example 138, (−)-1-{7-[4-(trifluoromethyl)phenyl]-2,3-dihydro-1-benzofuran-2-yl}methanamine] | 7.4 nM | 3800 nM | 60% | –
9 | CNCC1Cc2cc(C(F)(F)F)cc(-c3ccccc3)c2O1 (racemic) [Example 518, (±)-{[N-methyl-1-[7-phenyl-5-(trifluoromethyl)-2,3-dihydro-1-benzofuran-2-yl]methanamine] | 40 nM | 384 nM | – | 80%
10 | CNCC1Cc2cc(C)cc(-c3ccc(C)cc3)c2O1 (racemic) [Example 480, (±)-{[7-(4-methylphenyl)-5-methyl-2,3-dihydro-1-benzofuran-2-yl]methyl}methylamine] | 4.4 nM | 251 nM | – | 70%
11 | NCC1Cc2cccc(-c3ccc(Cl)cc3)c2O1 (single isomer, unassigned; (+)) [Example 77, (+)-1-[7-(4-chlorophenyl)-2,3-dihydro-1-benzofuran-2-yl]methanamine] | 2 nM | 8 nM | – | 100%
12 | CNCC1Cc2cc(F)cc(-c3cc(OC)ccc3C)c2O1 (racemic) [Example 456, (±)-{[5-fluoro-7-(5-methoxy-2-methylphenyl)-2,3-dihydro-1-benzofuran-2-yl]methyl}methylamine] | 4.1 nM | 50 nM | – | 100%
13 | NCC1Cc2c(cccc2-c2ccccc2)O1 (racemic) [Example 1, (±)-1-(4-phenyl-2,3-dihydro-1-benzofuran-2-yl)methanamine] | 43 nM | 926 nM | – | 90%
14 | Cc1cccc(C)c1-c1cccc2c1OC(CN)C2 (single isomer, unassigned; (-)) [Example 57, (−)-1-[7-(2,6-dimethylphenyl)-2,3-dihydro-1-benzofuran-2-yl]methanamine] | 1 nM | 12 nM | – | 80%
15 | CNCC1Cc2cc(OC)cc(-c3c(C)cccc3C)c2O1 (racemic) [Example 504, (±)-{[7-(2,6-dimethylphenyl)-5-methoxy-2,3-dihydro-1-benzofuran-2-yl]methyl}methylamine] | 1.2 nM | 27 nM | – | 90%
16 | CNCC1Cc2cccc(-c3cccc(F)c3)c2O1 (racemic) [Example 415, (±)-[(N-methyl-1-[7-(3-fluorophenyl)-2,3-dihydro-1-benzofuran-2-yl]methanamine] | 1.1 nM | 109 nM | – | 70%
17 | NCC1Cc2cc(C3CCCC3)cc(-c3ccccc3Cl)c2O1 (racemic) [Example 310, (±)-{[5-cyclopentyl-7-(2-chlorophenyl)-2,3-dihydro-1-benzofuran-2-yl]methyl}amine] | 13 nM | 137 nM | – | 90%
18 | COc1ccc(Cl)cc1-c1cc(Cl)cc2c1OC(CN)C2 (racemic) [Example 257, (±)-{[5-chloro-7-(5-chloro-2-methoxyphenyl)-2,3-dihydro-1-benzofuran-2-yl]methyl}amine] | 28 nM | 194 nM | – | 80%
19 | NCC1Cc2cc(C(F)(F)F)cc(-c3cccnc3)c2O1 (racemic) [Example 343, (±)-{[7-pyridin-3-yl-5-(trifluoromethyl)-2,3-dihydro-1-benzofuran-2-yl]methyl}amine] | 12 nM | 49 nM | – | 90%

Second part, the molecule after the results:

Row | Ki [1] | EC50 [2] | 5-HT2C Function Emax (%) [2] | Emax [2] | Structure (SMILES)
20 | 0.3 nM | 29 nM | – | 90% | NCC1Cc2cc(Cl)cc(-c3ccccc3F)c2O1 (racemic) [Example 241, (±)-{[5-chloro-7-(2-fluorophenyl)-2,3-dihydro-1-benzofuran-2-yl]methyl}amine]
21 | 1 nM | 6 nM | – | 100% | CNCC1Cc2cc(C)cc(-c3c(Cl)cccc3Cl)c2O1 (racemic) [Example 490, (±)-{[7-(2,6-dichlorophenyl)-5-methyl-2,3-dihydro-1-benzofuran-2-yl]methyl}methylamine]
22 | 11 nM | 30 nM | – | 90% | Cc1cc2c(c(-c3ccc(Cl)cc3Cl)c1)OC(CN)C2 (single isomer, unassigned; (-)) [Example 298, (−)-{[7-(2,4-dichlorophenyl)-5-methyl-2,3-dihydro-1-benzofuran-2-yl]methyl}amine]
23 | 0.13 nM | 22 nM | – | 90% | Cc1cccc(C)c1-c1cc(Cl)cc2c1OC(CN)C2 (racemic) [Example 260, (±)-{[5-chloro-7-(2,6-dimethylphenyl)-2,3-dihydro-1-benzofuran-2-yl]methyl}amine]
24 | 0.07 nM | 0.03 nM | – | 90% | NCC1Cc2cccc(-c3c(Cl)cccc3Cl)c2O1 (single isomer, unassigned; (-)) [Example 141, (−)-1-[7-(2,6-dichlorophenyl)-2,3-dihydro-1-benzofuran-2-yl]methanamine]
25 | 36 nM | 343 nM | – | 70% | COc1cc2c(c(-c3cccc(Cl)c3Cl)c1)OC(CN)C2 (racemic) [Example 362, (±)-{[7-(2,3-dichlorophenyl)-5-methoxy-2,3-dihydro-1-benzofuran-2-yl]methyl}amine]
26 | 2.4 nM | 11 nM | – | 90% | COc1cccc(-c2cc(F)cc3c2OC(CN)C3)c1OC (racemic) [Example 212, (±)-{[7-(2,3-dimethoxyphenyl)-5-fluoro-2,3-dihydro-1-benzofuran-2-yl]methyl}amine]
27 | 42 nM | 734 nM | – | 80% | NCC1Cc2cc(Cl)cc(-c3ccc(F)c(F)c3)c2O1 (racemic) [Example 258, (±)-{[5-chloro-7-(3,4-difluorophenyl)-2,3-dihydro-1-benzofuran-2-yl]methyl}amine]
28 | 0.74 nM | 4 nM | – | 100% | NCC1Cc2cc(Cl)cc(-c3cc(Cl)ccc3Cl)c2O1 (racemic) [Example 256, (±)-{[5-chloro-7-(2,5-dichlorophenyl)-2,3-dihydro-1-benzofuran-2-yl]methyl}amine]
29 | 15 nM | 164 nM | – | 90% | NCC1Cc2cc(Cl)cc(-c3cccc(Cl)c3Cl)c2O1 (racemic) [Example 247, (±)-{[5-chloro-7-(2,3-dichlorophenyl)-2,3-dihydro-1-benzofuran-2-yl]methyl}amine]
30 | 0.55 nM | 17 nM | – | 90% | NCC1Cc2cc(F)cc(-c3c(Cl)cccc3Cl)c2O1 (single isomer, unassigned; (+)) [Example 551, (+)-{[7-(2,6 dichlorophenyl)-5-fluoro-2,3-dihydro-1-benzofuran-2-yl]methyl}amine]
31 | 6.6 nM | 202 nM | 70% | – | NCC1Cc2cc(F)cc(-c3ccccc3C(F)(F)F)c2O1 (single isomer, unassigned; (+)) [Example 152, (+)-1-{5-fluoro-7-[2-(trifluoromethyl)phenyl]-2,3-dihydro-1-benzofuran-2-yl}methanamine]
